Literature values as cited in US20160271085A1 (priority 2015, published 2016).

Legend:
[1] = tested on: amyotrophic lateral sclerosis; details: ALS
injured sciatic nerves = details: addition of lactate; response did not occur in an atmosphere of nitrogen
[2] = oral, ingested

Nc1nc2ccc(OC(F)(F)F)cc2s1 [Riluzole]
progress of the disease [1]: appears to slow the progress of the disease

CC(O)C(=O)O (stereo not drawn) [lactate]
sustained muscle contraction (injured sciatic nerves): enhanced

CC(O)C(=O)[O-].[Na+] (stereo not drawn) [sodium lactate, Sodium lactate]
serum lactate levels [2]: significantly elevate serum lactate levels
